Measurements reported in patent publication US6022696A, “Methods of identifying agonists or antagonists of angiotensin IV” (Washington State University Research Foundation, priority 1998, dated 2000).
Where two headings read alike, the source gives them in different places. Non-standard residues stand in square brackets, D forms with d. Residues, ends and D or L forms follow the SMILES beside them. Nle = CCCC[C@H](N)C(=O)O

Assays:
rat [1] = test: Systemic arterial blood pressure during renal artery infusion
rat [2] = conditions: in vivo

SMILES | effect on arterial blood pressure (rat [1]) | effect on arterial blood pressure (rat [2])
CC[C@H](C)[C@H](NC(=O)[C@H](Cc1ccc(O)cc1)NC(=O)[C@@H](N)CCCCN)C(=O)N[C@@H](Cc1c[nH]cn1)C(=O)N1CCC[C@H]1C(=O)N[C@@H](Cc1ccccc1)C(=O)O [KYIHPF] (H-KYIHPF-OH) | no significant changes in arterial blood pressure | –
CCCC[C@H](N)C(=O)N[C@@H](Cc1ccc(O)cc1)C(=O)N[C@H](C(=O)N[C@@H](Cc1cnc[nH]1)C(=O)N1CCC[C@H]1C(=O)N[C@@H](Cc1ccccc1)C(=O)O)[C@@H](C)CC [NleYIHPF] (H-[Nle]YIHPF-OH) | – | no effect on mean arterial pressure
